Consider 1 compound from patent publication US6485743B1, “Method and composition of an oral preparation of itraconazole” (Choongwae Pharma Corporation, priority 1997, dated 2002).

The nature of data set [1]: Comparative test of solubility of the solid dispersions in polymer. It is filed as physicochemical. As to conditions: simulated gastric fluid, thermodynamic from solid, simulated gastric juice (pH 1.2), 25° C., itraconazole:hydrophilic polymer=1:1.5 (w/w), n=3, Average ± Standard deviation.
For data set [2] the following is noted: cited from earlier work.
For data set [3] the following is noted: pH 8.1 aqueous buffer/n-octanol system; cited from earlier work.

As to `CCC(C)n1ncn(-c2ccc(N3CCN(c4ccc(OCC5COC(Cn6cncn6)(c6ccc(Cl)cc6Cl)O5)cc4)CC3)cc2)c1=O` (mixture of isomers) [itraconazole, (±)-cis-4-[4-[4-[4-[[2-(2,4-dichlorophenyl)-2-(1H-1,2,4-triazol-1-ylmethyl)-1,3-dioxolan-4-yll]methoxy]phenyl]-1-piperazinyl]phenyl]-2,4-dihydro-2-(1-methylpropyl)-3H-1,2,4-triazol-3-one], in data set [1], the solubility (in general, the dissolved amount per volume that the medium holds) at 24 h is 1.38 ± 0.11 µg/mL. For the same compound, in data set [2] (diluted acidic solution), the “solubility in diluted acidic solution” value is listed as “less than 5 μg/ml”. Further, in data set [2] (water), the solubility in water entry is “less than 1 μg/ml”. In data set [3], the oil/water partition coefficient is 5.66.
